In brackets after ≈: the same amount, converted by molar mass.
Test system: Burkholderia cenocepacia BC240 (cystic fibrosis isolate, MDR)
Test: MIC assay
Type: cell-based
Conditions: Table 6; control compounds

Compound	MIC BC 240 [µg/mL]
CN(C)c1cc(NC(=O)CNC(C)(C)C)c(O)c2c1C[C@H]1C[C@H]3[C@H](N(C)C)C(O)=C(C(N)=O)C(=O)[C@@]3(O)C(O)=C1C2=O [Tigecycline, tigecycline]	16 (≈ 27.3 µM)
CN(C)[C@@H]1C(O)=C(C(N)=O)C(=O)[C@@]2(O)C(O)=C3C(=O)c4c(O)cccc4C[C@H]3C[C@@H]12 [Sancycline, sancycline]	4 (≈ 9.65 µM)

From US10913712B2, “Tetracycline compounds” (Tetraphase Pharmaceuticals, Inc., priority 2012, dated 2021)
